In PubChem BioAssay AID2060908 (Molecular Pharmacology Branch, DTP, NCI, 2025):
pIC50: −log10 of the molar value. Values belong to the molecule of their own block, whether it stands above or below them.

System: 186277-243-T-J2-PDC complex spheroids, viability
Experiment: Anticancer human tumor 186277-243-T-J2-PDC patient-derived colon adenocarcinoma cell line growth inhibition [RAS]
Settings: for pIC50: curve of first compound; for viability, T/C: stronger effect = lower value
How it was run: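 Multi-cell-type spheroids: tumor cells plus HUVEC endothelial cells and mesenchymal stem cells. RAS-pathway inhibitors were combined with targeted agents, each dosed in half-log steps down from clinical Cmax, or from 10 microM when Cmax was unknown.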

[1] = second compound 0.000949 µM, first compound 0.0316 µM
[2] = second compound 0.000949 µM, first compound 0.1 µM
[3] = second compound 0.000949 µM, first compound 0.316 µM
[4] = second compound 0.000949 µM, first compound 1 µM
[5] = second compound 0.000949 µM, first compound 3.16 µM
[6] = second compound 0.000949 µM, first compound 10 µM
[7] = second compound 0.003 µM, first compound 0.0316 µM
[8] = second compound 0.003 µM, first compound 0.1 µM
[9] = second compound 0.003 µM, first compound 0.316 µM
[10] = second compound 0.003 µM, first compound 1 µM
[11] = second compound 0.003 µM, first compound 3.16 µM
[12] = second compound 0.003 µM, first compound 10 µM
[13] = second compound 0.00949 µM, first compound 0.0316 µM
[14] = second compound 0.00949 µM, first compound 0.1 µM
[15] = second compound 0.00949 µM, first compound 0.316 µM
[16] = second compound 0.00949 µM, first compound 1 µM
[17] = second compound 0.00949 µM, first compound 3.16 µM
[18] = second compound 0.00949 µM, first compound 10 µM
[19] = second compound 0.03 µM, first compound 0.0316 µM
[20] = second compound 0.03 µM, first compound 0.1 µM
[21] = second compound 0.03 µM, first compound 0.316 µM
[22] = second compound 0.03 µM, first compound 1 µM
[23] = second compound 0.03 µM, first compound 3.16 µM
[24] = second compound 0.03 µM, first compound 10 µM
[25] = second compound 0.0949 µM, first compound 0.0316 µM
[26] = second compound 0.0949 µM, first compound 0.1 µM
[27] = second compound 0.0949 µM, first compound 0.316 µM
[28] = second compound 0.0949 µM, first compound 1 µM
[29] = second compound 0.0949 µM, first compound 3.16 µM
[30] = second compound 0.0949 µM, first compound 10 µM
[31] = second compound 0.3 µM, first compound 0.0316 µM
[32] = second compound 0.3 µM, first compound 0.1 µM
[33] = second compound 0.3 µM, first compound 0.316 µM
[34] = second compound 0.3 µM, first compound 1 µM
[35] = second compound 0.3 µM, first compound 3.16 µM
[36] = second compound 0.3 µM, first compound 10 µM
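Further: spheroids exposed to compounds for 7 days before viability read.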

pIC50 (second compound 0.00316 µM): 5.73 | pIC50 (second compound 0.01 µM): 5.78 | pIC50 (second compound 0.0316 µM): 5.74 | pIC50 (second compound 0.1 µM): 5.81 | pIC50 (second compound 0.316 µM): 5.74 | pIC50 (second compound 1 µM): 5.80
Compound: CCC(CC)c1cc(NC2CCC(N)C2)n2nccc2n1 (stereo not drawn) + C=CC(=O)N1CCN(c2nc(OCC3CCCN3C)nc3c(F)c(-c4nc(N)cc(C)c4C(F)(F)F)c(Cl)cc23)C(C)C1
viability, T/C (second compound 0.00316 µM, first compound 0.0316 µM): 91.8% | viability, T/C (second compound 0.00316 µM, first compound 0.1 µM): 97.2% | viability, T/C (second compound 0.00316 µM, first compound 0.316 µM): 89.5% | viability, T/C (second compound 0.00316 µM, first compound 1 µM): 117% | viability, T/C (second compound 0.00316 µM, first compound 3.16 µM): 7.95% | viability, T/C (second compound 0.00316 µM, first compound 10 µM): 0.31% | viability, T/C (second compound 0.01 µM, first compound 0.0316 µM): 78% | viability, T/C (second compound 0.01 µM, first compound 0.1 µM): 103% | viability, T/C (second compound 0.01 µM, first compound 0.316 µM): 76.2% | viability, T/C (second compound 0.01 µM, first compound 1 µM): 84.2% | viability, T/C (second compound 0.01 µM, first compound 3.16 µM): 7.63% | viability, T/C (second compound 0.01 µM, first compound 10 µM): 0.49% | viability, T/C (second compound 0.0316 µM, first compound 0.0316 µM): 86.4% | viability, T/C (second compound 0.0316 µM, first compound 0.1 µM): 93.5% | viability, T/C (second compound 0.0316 µM, first compound 0.316 µM): 93.8% | viability, T/C (second compound 0.0316 µM, first compound 1 µM): 115% | viability, T/C (second compound 0.0316 µM, first compound 3.16 µM): 5.08% | viability, T/C (second compound 0.0316 µM, first compound 10 µM): 0.32% | viability, T/C (second compound 0.1 µM, first compound 0.0316 µM): 93% | viability, T/C (second compound 0.1 µM, first compound 0.1 µM): 102% | viability, T/C (second compound 0.1 µM, first compound 0.316 µM): 77.5% | viability, T/C (second compound 0.1 µM, first compound 1 µM): 79% | viability, T/C (second compound 0.1 µM, first compound 3.16 µM): 3.18% | viability, T/C (second compound 0.1 µM, first compound 10 µM): 0.31% | viability, T/C (second compound 0.316 µM, first compound 0.0316 µM): 81% | viability, T/C (second compound 0.316 µM, first compound 0.1 µM): 94.3% | viability, T/C (second compound 0.316 µM, first compound 0.316 µM): 117% | viability, T/C (second compound 0.316 µM, first compound 1 µM): 109% | viability, T/C (second compound 0.316 µM, first compound 3.16 µM): 2.74% | viability, T/C (second compound 0.316 µM, first compound 10 µM): 0.35% | viability, T/C (second compound 1 µM, first compound 0.0316 µM): 102% | viability, T/C (second compound 1 µM, first compound 0.1 µM): 91.8% | viability, T/C (second compound 1 µM, first compound 0.316 µM): 101% | viability, T/C (second compound 1 µM, first compound 1 µM): 82.9% | viability, T/C (second compound 1 µM, first compound 3.16 µM): 2.87% | viability, T/C (second compound 1 µM, first compound 10 µM): 0.37%

pIC50 (second compound 0.000949 µM): 5.74 | pIC50 (second compound 0.003 µM): 5.76 | pIC50 (second compound 0.00949 µM): 6.38 | pIC50 (second compound 0.03 µM): > 7.50 | pIC50 (second compound 0.0949 µM): > 7.50 | pIC50 (second compound 0.3 µM): > 7.50
Compound: CCC(CC)c1cc(NC2CCC(N)C2)n2nccc2n1 (stereo not drawn) + CCn1c(-c2cc(N3CCN(C)CC3)cnc2C(C)OC)c2c3cc(ccc31)-c1csc(n1)CC(NC(=O)C1CC1C)C(=O)N1CCCC(N1)C(=O)OCC(C)(C)C2
viability, T/C [1]: 123% | viability, T/C [2]: 115% | viability, T/C [3]: 109% | viability, T/C [4]: 101% | viability, T/C [5]: 4.75% | viability, T/C [6]: 0.22% | viability, T/C [7]: 99.4% | viability, T/C [8]: 100% | viability, T/C [9]: 107% | viability, T/C [10]: 91.9% | viability, T/C [11]: 3.89% | viability, T/C [12]: 0.17% | viability, T/C [13]: 55.5% | viability, T/C [14]: 54.6% | viability, T/C [15]: 57.5% | viability, T/C [16]: 33% | viability, T/C [17]: 3.19% | viability, T/C [18]: 0.17% | viability, T/C [19]: 15.8% | viability, T/C [20]: 17% | viability, T/C [21]: 18.1% | viability, T/C [22]: 9.82% | viability, T/C [23]: 3.01% | viability, T/C [24]: 0.19% | viability, T/C [25]: 8.36% | viability, T/C [26]: 8.25% | viability, T/C [27]: 9.17% | viability, T/C [28]: 5.58% | viability, T/C [29]: 2.44% | viability, T/C [30]: 0.29% | viability, T/C [31]: 7.09% | viability, T/C [32]: 6.68% | viability, T/C [33]: 6.45% | viability, T/C [34]: 4.66% | viability, T/C [35]: 2.73% | viability, T/C [36]: 0.31%

IC50 (curve of compound): 2.59 µM [middle of 4 runs]
Compound: CC(C)NCC(C(=O)N1CCN(c2ncnc3c2C(C)CC3O)CC1)c1ccc(Cl)cc1 (stereo not drawn)
viability, T/C (compound 0.0316 µM): 86% [middle of 4 runs] | viability, T/C (compound 0.1 µM): 89.2% [middle of 4 runs] | viability, T/C (compound 0.316 µM): 97.7% [middle of 4 runs] | viability, T/C (compound 1 µM): 68.8% [middle of 4 runs] | viability, T/C (compound 3.16 µM): 48% [middle of 4 runs] | viability, T/C (compound 10 µM): 32.2% [middle of 4 runs]

pIC50 (second compound 0.000949 µM): 5.76 | pIC50 (second compound 0.003 µM): 5.75 | pIC50 (second compound 0.00949 µM): 5.73 | pIC50 (second compound 0.03 µM): 5.72 | pIC50 (second compound 0.0949 µM): 5.81 | pIC50 (second compound 0.3 µM): 5.92
Compound: CCC(CC)c1cc(NC2CCC(N)C2)n2nccc2n1 (stereo not drawn) + CCn1c(-c2cccnc2C(C)OC)c2c3cc(ccc31)N1CCOC(CC(NC(=O)C(C(C)C)N(C)C(=O)C3(F)CCN(C(=O)C#CC(C)(C)N(C)C)CC3)C(=O)N3CCCC(N3)C(=O)OCC(C)(C)C2)C1
viability, T/C [1]: 105% | viability, T/C [2]: 91.8% | viability, T/C [3]: 90.4% | viability, T/C [4]: 91.2% | viability, T/C [5]: 4.89% | viability, T/C [6]: 0.44% | viability, T/C [7]: 96% | viability, T/C [8]: 86.7% | viability, T/C [9]: 98% | viability, T/C [10]: 101% | viability, T/C [11]: 4.58% | viability, T/C [12]: 0.37% | viability, T/C [13]: 99.4% | viability, T/C [14]: 87.2% | viability, T/C [15]: 91.9% | viability, T/C [16]: 103% | viability, T/C [17]: 12.8% | viability, T/C [18]: 0.38% | viability, T/C [19]: 107% | viability, T/C [20]: 107% | viability, T/C [21]: 97.7% | viability, T/C [22]: 113% | viability, T/C [23]: 4.88% | viability, T/C [24]: 0.35% | viability, T/C [25]: 111% | viability, T/C [26]: 103% | viability, T/C [27]: 108% | viability, T/C [28]: 77.6% | viability, T/C [29]: 4.31% | viability, T/C [30]: 0.37% | viability, T/C [31]: 102% | viability, T/C [32]: 108% | viability, T/C [33]: 98.2% | viability, T/C [34]: 59.5% | viability, T/C [35]: 3.42% | viability, T/C [36]: 0.42%
